Inhibition data for 27 compounds are collected here from ChEMBL document CHEMBL4814042, “Design and synthesis of C-aryl angular luotonins via a one-pot aza-Nazarov-Friedlander sequence and their Topo-I inhibition studies along with C-aryl vasicinones and luotonins” (Bioorg Med Chem Lett, 2021).

Calls of active or inactive are those of the source. The rule behind the calls is not given here.

Assay [1] has as its target T1, DNA topoisomerase 1 (Homo sapiens) (UniProt P11387).
T1 sequence (whole entry): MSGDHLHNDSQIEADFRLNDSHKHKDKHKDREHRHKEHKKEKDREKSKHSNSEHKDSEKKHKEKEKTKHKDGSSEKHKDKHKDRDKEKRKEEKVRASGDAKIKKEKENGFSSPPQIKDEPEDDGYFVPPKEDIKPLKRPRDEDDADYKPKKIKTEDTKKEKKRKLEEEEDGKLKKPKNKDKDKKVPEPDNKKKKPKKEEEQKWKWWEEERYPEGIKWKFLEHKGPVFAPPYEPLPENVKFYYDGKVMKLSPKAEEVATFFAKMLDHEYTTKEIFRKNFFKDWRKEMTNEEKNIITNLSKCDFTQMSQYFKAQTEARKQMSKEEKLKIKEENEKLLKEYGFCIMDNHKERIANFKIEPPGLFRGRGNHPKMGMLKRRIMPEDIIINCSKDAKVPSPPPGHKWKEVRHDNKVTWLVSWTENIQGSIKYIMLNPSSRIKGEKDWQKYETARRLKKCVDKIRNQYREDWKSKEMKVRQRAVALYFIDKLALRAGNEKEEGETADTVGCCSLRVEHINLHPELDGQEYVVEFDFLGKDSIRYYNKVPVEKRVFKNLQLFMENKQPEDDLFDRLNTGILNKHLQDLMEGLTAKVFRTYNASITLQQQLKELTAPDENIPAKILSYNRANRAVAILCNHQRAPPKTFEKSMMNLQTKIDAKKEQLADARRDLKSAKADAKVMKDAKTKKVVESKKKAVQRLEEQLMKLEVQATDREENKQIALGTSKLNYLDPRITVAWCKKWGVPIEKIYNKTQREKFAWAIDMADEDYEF
The assay can be described thus: Inhibition of human Topoisomerase 1 at 0.1 to 100 uM. The settings on record: dose 0.1-100 µM.

The target in assay [2] is T1, DNA topoisomerase 1 (Homo sapiens). In words: Inhibition of human Topoisomerase 1 at 1 to 100 uM. The settings on record: dose 1-100 µM.
Assay [3] has the same target. In words: Inhibition of human Topoisomerase 1 at 100 uM.
Assay [4] has the same target. The assay can be described thus: Inhibition of human Topoisomerase 1 at 10 to 100 uM. The note with it: dose 10-100 µM.

For `O=c1nc2n(c3ccccc13)C(c1ccc(Cl)cc1)c1cc3ccccc3nc1-2` (configuration not stated), the inhibition result in assay [1] was “Active”.
On to `O=c1nc2n(c3ccccc13)C(c1ccccc1)c1cc3ccccc3nc1-2` (configuration not stated), for which, in assay [1], the inhibition entry was “Active”.
Consider `CSc1ccc(C2c3cc4ccccc4nc3-c3nc(=O)c4ccccc4n32)cc1` (configuration not stated), for which the inhibition result in assay [1] is “Active”.
On the same count and under the same terms, for `COc1ccc(C2c3cc4ccccc4nc3-c3nc(=O)c4ccccc4n32)cc1` (configuration not stated) the value was “Active”.
In the case of `O=c1nc2n(c3ccccc13)C(c1ccc(F)cc1)c1cc3ccccc3nc1-2` (configuration not stated), the inhibition result in assay [1] is “Active”.
Take `COc1ccc(C2c3cc4ccccc4nc3-c3nc4ccccc4c(=O)n32)cc1` (configuration not stated): in assay [1], the inhibition entry was “Active”.
On the same count and under the same terms, for `O=c1nc2n(c3ccccc13)C(c1ccc(C(F)(F)F)cc1)c1cc3ccccc3nc1-2` (configuration not stated) the value was “Active”; for `O=c1c2ccccc2nc2n1C(c1ccc(F)cc1)c1cc3ccccc3nc1-2` (configuration not stated), “Active”.
In the case of `O=c1nc2n(c3ccccc13)C(c1cccc(Br)c1)c1cc3ccccc3nc1-2` (configuration not stated), in assay [1], the inhibition entry was “Active”.
Consider `O=c1c2ccccc2nc2n1C(c1ccc(Br)cc1)c1cc3ccccc3nc1-2` (configuration not stated), for which the inhibition result in assay [1] is “Active”.
In the case of `CSc1ccc([C@@H]2C[C@H](O)c3nc4ccccc4c(=O)n32)cc1`, the inhibition entry in assay [2] is “Active”.
Consider `Cc1ccc(C2c3cc4ccccc4nc3-c3nc4ccccc4c(=O)n32)cc1` (configuration not stated), for which the inhibition result in assay [1] was “Active”.
Regarding `Cc1ccccc1C1c2cc3ccccc3nc2-c2nc(=O)c3ccccc3n21` (configuration not stated), the inhibition result in assay [1] is “Active”.
The same measure, in the same setting: for `Cc1ccc(C2c3cc4ccccc4nc3-c3nc(=O)c4ccccc4n32)cc1` (configuration not stated) the value was “Active”.
The same measure, in the same setting: next, `O=c1c2ccccc2nc2n1C(c1ccccc1)c1cc3ccccc3nc1-2` (configuration not stated): “Active”.
As for `O=c1c2ccccc2nc2n1[C@H](c1ccc(C(F)(F)F)cc1)C[C@@H]2O`, the inhibition entry in assay [3] was “Active”.
On to `O=c1nc2n(c3ccccc13)C(c1ccc(Br)cc1)c1cc3ccccc3nc1-2` (configuration not stated), for which the inhibition entry in assay [1] is “Active”.
Regarding `O=c1c2ccccc2nc2n1C(c1cccc(Br)c1)c1cc3ccccc3nc1-2` (configuration not stated), in assay [1], the inhibition entry is “Active”.
Turning to `COc1cccc(C2c3cc4ccccc4nc3-c3nc4ccccc4c(=O)n32)c1` (configuration not stated), in assay [1], the inhibition result was “Active”.
Regarding `COc1cc(C2c3cc4ccccc4nc3-c3nc(=O)c4ccccc4n32)cc(OC)c1OC` (configuration not stated), the inhibition entry in assay [1] was “Active”.
`COc1cccc(C2c3cc4ccccc4nc3-c3nc(=O)c4ccccc4n32)c1` (configuration not stated): the inhibition result in assay [1] is “Active”.
For `CSc1ccc(C2c3cc4ccccc4nc3-c3nc4ccccc4c(=O)n32)cc1` (configuration not stated), the inhibition entry in assay [1] was “Active”.
As for `COc1cc(C2c3cc4ccccc4nc3-c3nc4ccccc4c(=O)n32)cc(OC)c1OC` (configuration not stated), in assay [1], the inhibition entry is “Active”.
Still for that read-out and setting: next, `O=c1c2ccccc2nc2n1C(c1ccc(C(F)(F)F)cc1)c1cc3ccccc3nc1-2` (configuration not stated): “Active”; `Cc1ccccc1C1c2cc3ccccc3nc2-c2nc3ccccc3c(=O)n21` (configuration not stated): “Active”.
As for `O=c1c2ccccc2nc2n1[C@H](c1cccc(Br)c1)C[C@@H]2O`, the inhibition entry in assay [4] is “Active”.
In the case of `O=c1c2ccccc2nc2n1C(c1ccc(Cl)cc1)c1cc3ccccc3nc1-2` (configuration not stated), in assay [1], the inhibition result was “Active”.
